The values below come from patent US10344025B2, “GLS1 inhibitors for treating disease” (Board of Regents, The University of Texas System, priority 2014, dated 2019).

Structures are written as SMILES. A value given as a limit tells only on which side of the number the result lay.

The test system of one assay is A549 cells. The assay is described as follows: Proliferation Assay (A549 viability, Cell Titer Fluor, 72 hours). To be noted: Homo sapiens. The class given is cell-based. As to the method:
A549 cells were routinely maintained in RPMI 1640 media (Gibco catalog number 11875-093) supplemented with 10% dialyzed fetal bovine serum using a humidified incubator (37° C., 5% CO2 and ambient O2). In preparation for the viability assay, cells were inoculated into 384-well black CulturPlates (Perkin Elmer) at a density of 1000 cells/well in a volume of 40 uL. Following a 24-hour incubation at 37° C., 5% CO2 and ambient O2, cells were treated with compound (10 uL) in a final DMSO concentration of 0.5% (v/v). The microplates were then incubated for 72 hours (37° C., 5% CO2 and ambient O2). Cell Titer Fluor (Promega) was subsequently added (10 uL of 6× reagent) and mixed for 15 minutes at room temperature. The plates were then incubated for 30 minutes (37° C., 5% CO2 and ambient O2) and fluorescence was subsequently read on the Perkin Elmer Envision plate reader. IC50 values were calculated using a four-parameter logistic curve fit.
Non-limiting examples include the following compounds and pharmaceutically acceptable salts thereof. […] “ND” indicates no data.
As a reminder, the EC50 is the concentration that produces a half-maximal response. Higher therefore signals a need for much substance. `CNC(=O)c1cn(CC(F)CCc2nnc(C(=O)NCc3cc(C(F)(F)F)ccn3)s2)nn1` (racemic) [Example 508, 5-(3-fluoro-4-(4-(methylcarbamoyl)-1H-1,2,3-triazol-1-yl)butyl)-N-((4-(trifluoromethyl)pyridin-2-yl)methyl)-1,3,4-thiadiazole-2-carboxamide] showed a 50% effective concentration (EC50) of 100 to 500 nM.

Staying with this assay, now noted: Homo sapiens, A549, 72 h.
In the case of `CNC(=O)c1cn(CC(F)CCc2ccc(NC(=O)Cc3cc(-c4cccc(OC(F)(F)F)c4)ccn3)nn2)nn1` (stereo not shown) [Example 242, 1-(2-fluoro-4-(6-(2-(4-(3-(trifluoromethoxy)phenyl)pyridin-2-yl)acetamido)pyridazin-3-yl)butyl)-N-methyl-1H-1,2,3-triazole-4-carboxamide], the EC50 is < 100 nM.
Same read-out and setting: as for `CNC(=O)c1cn(CC(F)CCc2ccc(NC(=O)Cc3cc(C(F)(F)F)ccn3)nn2)nn1` (stereo not shown) [Example 248, 1-(2-fluoro-4-(6-(2-(4-(trifluoromethyl)pyridin-2-yl)acetamido)pyridazin-3-yl)butyl)-N-methyl-1H-1,2,3-triazole-4-carboxamide], the figure is < 100 nM.
The same measure, in the same setting: as for `CNC(=O)c1cn(CC(F)CCc2ccc(NC(=O)Cc3cc(OC4CC(F)(F)C4)ccn3)nn2)nn1` (stereo not shown) [Example 252, 1-(4-(6-(2-(4-(3,3-difluorocyclobutoxy)pyridin-2-yl)acetamido)pyridazin-3-yl)-2-fluorobutyl)-N-methyl-1H-1,2,3-triazole-4-carboxamide], the figure is < 100 nM; as for `CNC(=O)c1cn(C[C@H](F)CCc2ccc(NC(=O)Cc3ccccn3)nn2)nn1` [Example 254, (R)-1-(2-fluoro-4-(6-(2-(pyridin-2-yl)acetamido)pyridazin-3-yl)butyl)-N-methyl-1H-1,2,3-triazole-4-carboxamide], 100 to 500 nM.
As for `CNC(=O)c1cn(C[C@H](F)CCc2ccc(NC(=O)Cc3cc(-c4cccc(OC(F)(F)F)c4)ccn3)nn2)nn1` [Example 255, (R)-1-(2-fluoro-4-(6-(2-(4-(3-(trifluoromethoxy)phenyl)pyridin-2-yl)acetamido)pyridazin-3-yl)butyl)-N-methyl-1H-1,2,3-triazole-4-carboxamide], the EC50 is < 100 nM.
Same read-out and setting: as for `CNC(=O)c1cn(C[C@@H](F)CCc2ccc(NC(=O)Cc3ccccn3)nn2)nn1` [Example 256, (S)-1-(2-fluoro-4-(6-(2-(pyridin-2-yl)acetamido)pyridazin-3-yl)butyl)-N-methyl-1H-1,2,3-triazole-4-carboxamide], the figure is 100 to 500 nM; as for `CNC(=O)c1cn(C[C@@H](F)CCc2ccc(NC(=O)Cc3cc(-c4cccc(OC(F)(F)F)c4)ccn3)nn2)nn1` [Example 257, (S)-1-(2-fluoro-4-(6-(2-(4-(3-(trifluoromethoxy)phenyl)pyridin-2-yl)acetamido)pyridazin-3-yl)butyl)-N-methyl-1H-1,2,3-triazole-4-carboxamide], < 100 nM; as for `CNC(=O)c1cn(C[C@@H](F)CCc2ccc(NC(=O)Cc3cc(C(F)(F)F)ccn3)nn2)nn1` [Example 260, (S)-1-(2-fluoro-4-(6-(2-(4-(trifluoromethyl)pyridin-2-yl)acetamido)pyridazin-3-yl)butyl)-N-methyl-1H-1,2,3-triazole-4-carboxamide], < 100 nM.
For the compound `CNC(=O)c1cn(CCCCc2ccc(NC(=O)Cc3cc(OC4CC(F)(F)C4)ccn3)nn2)nn1` [Example 261, 1-(4-(6-(2-(4-(3,3-difluorocyclobutoxy)pyridin-2-yl)acetamido)pyridazin-3-yl)butyl)-N-methyl-1H-1,2,3-triazole-4-carboxamide], the EC50 was < 100 nM.
On the same count and under the same terms, to `CNC(=O)c1cn(CC(F)CCc2ccc(NC(=O)Cc3cc(C(F)(F)F)cc(C)n3)nn2)nn1` (stereo not shown) [Example 264, 1-(2-fluoro-4-(6-(2-(6-methyl-4-(trifluoromethyl)pyridin-2-yl)acetamido)pyridazin-3-yl)butyl)-N-methyl-1H-1,2,3-triazole-4-carboxamide] belongs < 100 nM; to `CNC(=O)c1cn(CC(F)CCc2ccc(NC(=O)Cc3cc(OC(C)C(F)(F)F)ccn3)nn2)nn1` (stereo not shown) [Example 266, 1-(2-fluoro-4-(6-(2-(4-((1,1,1-trifluoropropan-2-yl)oxy)pyridin-2-yl)acetamido)pyridazin-3-yl)butyl)-N-methyl-1H-1,2,3-triazole-4-carboxamide], < 100 nM; to `CNC(=O)c1cn(C[C@H](F)CCc2ccc(NC(=O)Cc3cc(C(F)(F)F)cc(C)n3)nn2)nn1` [Example 268, (R)-1-(2-fluoro-4-(6-(2-(6-methyl-4-(trifluoromethyl)pyridin-2-yl)acetamido)pyridazin-3-yl)butyl)-N-methyl-1H-1,2,3-triazole-4-carboxamide], < 100 nM.
For the compound `CNC(=O)c1cn(C[C@H](F)CCc2ccc(NC(=O)Cc3cc(OC4CC(F)(F)C4)ccn3)nn2)nn1` [Example 272, (R)-1-(4-(6-(2-(4-(3,3-difluorocyclobutoxy)pyridin-2-yl)acetamido)pyridazin-3-yl)-2-fluorobutyl)-N-methyl-1H-1,2,3-triazole-4-carboxamide], the EC50 was < 100 nM.
On the same count and under the same terms, to `CC(C)NC(=O)c1cn(CCCCc2ccc(NC(=O)Cc3cccc(OC(F)(F)F)c3)nn2)nn1` [Example 526, N-(propan-2-yl)-1-[4-(6-{2-[3-(trifluoromethoxy)phenyl]acetamido}pyridazin-3-yl)butyl]-1H-1,2,3-triazole-4-carboxamide] belongs 500 to 5000 nM; to `N#CCNC(=O)c1cn(CCCCc2ccc(NC(=O)Cc3cccc(OC(F)(F)F)c3)nn2)nn1` [Example 527, N-(cyanomethyl)-1-[4-(6-{2-[3-(trifluoromethoxy)phenyl]acetamido}pyridazin-3-yl)butyl]-1H-1,2,3-triazole-4-carboxamide], < 100 nM; to `O=C(Cc1cccc(OC(F)(F)F)c1)Nc1ccc(CCCCn2cc(C(=O)NCCO)nn2)nn1` [Example 528, N-(2-hydroxyethyl)-1-[4-(6-{2-[3-(trifluoromethoxy)phenyl]acetamido}pyridazin-3-yl)butyl]-1H-1,2,3-triazole-4-carboxamide], 500 to 5000 nM.
Consider `O=C(Cc1cccc(OC(F)(F)F)c1)Nc1ccc(CCCCn2cc(C(=O)NCc3ccccn3)nn2)nn1` [Example 529, N-(pyridin-2-ylmethyl)-1-[4-(6-{2-[3-(trifluoromethoxy)phenyl]acetamido}pyridazin-3-yl)butyl]-1H-1,2,3-triazole-4-carboxamide], for which the concentration for a half-maximal effect (EC50) was < 100 nM.
Same read-out and setting: to `CNC(=O)c1cn(CCCCc2ccc(NC(=O)Cc3cccnc3)nn2)nn1` [Example 541, N-methyl-1-(4-{6-[2-(pyridin-3-yl)acetamido]pyridazin-3-yl}butyl)-1H-1,2,3-triazole-4-carboxamide] belongs 500 to 5000 nM; to `CNC(=O)c1cn(CCCCc2ccc(NC(=O)Cc3ccc(Cl)nc3)nn2)nn1` [Example 544, 1-(4-{6-[2-(6-chloropyridin-3-yl)acetamido]pyridazin-3-yl}butyl)-N-methyl-1H-1,2,3-triazole-4-carboxamide], 100 to 500 nM; to `CNC(=O)c1cn(CCCCc2ccc(NC(=O)Cc3cncc(Br)c3)nn2)nn1` [Example 546, 1-(4-{6-[2-(5-bromopyridin-3-yl)acetamido]pyridazin-3-yl}butyl)-N-methyl-1H-1,2,3-triazole-4-carboxamide], 100 to 500 nM.
Compound `CC(C)(O)CNC(=O)c1cn(CCCCc2ccc(NC(=O)Cc3cccc(OC(F)(F)F)c3)nn2)nn1` [Example 549, N-(2-hydroxy-2-methylpropyl)-1-[4-(6-{2-[3-(trifluoromethoxy)phenyl]acetamido}pyridazin-3-yl)butyl]-1H-1,2,3-triazole-4-carboxamide] gave an EC50 of 500 to 5000 nM.
Same read-out and setting: as for `COCCNC(=O)c1cn(CCCCc2ccc(NC(=O)Cc3cccc(OC(F)(F)F)c3)nn2)nn1` [Example 551, N-(2-methoxyethyl)-1-[4-(6-{2-[3-(trifluoromethoxy)phenyl]acetamido}pyridazin-3-yl)butyl]-1H-1,2,3-triazole-4-carboxamide], the figure is 100 to 500 nM; as for `CNC(=O)c1cn(CCCCc2ccc(NC(=O)Cc3cc(-c4ccc(F)cc4C(F)(F)F)ccn3)nn2)nn1` [Example 606, 1-(4-(6-(2-(4-(4-fluoro-2-(trifluoromethyl)phenyl)pyridin-2-yl)acetamido)pyridazin-3-yl)butyl)-N-methyl-1H-1,2,3-triazole-4-carboxamide], < 100 nM; as for `CNC(=O)c1cn(CCCCc2ccc(NC(=O)Cc3cc(-c4cccc(OC(F)(F)F)c4F)ccn3)nn2)nn1` [Example 607, 1-(4-(6-(2-(4-(2-fluoro-3-(trifluoromethoxy)phenyl)pyridin-2-yl)acetamido)pyridazin-3-yl)butyl)-N-methyl-1H-1,2,3-triazole-4-carboxamide], < 100 nM.
The same measure, in the same setting: as for `CNC(=O)c1cn(CCCCc2ccc(NC(=O)Cc3cc(-c4cccc(Cl)c4OC(F)(F)F)ccn3)nn2)nn1` [Example 608, 1-(4-(6-(2-(4-(3-chloro-2-(trifluoromethoxy)phenyl)pyridin-2-yl)acetamido)pyridazin-3-yl)butyl)-N-methyl-1H-1,2,3-triazole-4-carboxamide], the figure is < 100 nM; as for `CNC(=O)c1cn(CCCCc2ccc(NC(=O)Cc3cc(-c4cc(F)ccc4C)ccn3)nn2)nn1` [Example 609, 1-(4-(6-(2-(4-(5-fluoro-2-methylphenyl)pyridin-2-yl)acetamido)pyridazin-3-yl)butyl)-N-methyl-1H-1,2,3-triazole-4-carboxamide], < 100 nM.

For the next assay, the target named is purified recombinant human GAC (GLS1) (Homo sapiens (Human), UniProt O94925). The assay is described as follows: GLS1 Enzymatic Activity Assay (dual-coupled enzymatic assay, resorufin/Amplex UltraRed readout).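 Also: glutamate from GAC coupled via glutamate oxidase and peroxidase to resorufin, read as fluorescence (ex 530, em 590 nm) kinetically or at 20 min, four-parameter logistic IC50 fit.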
Sequence of purified recombinant human GAC (GLS1) (O94925 other isoform, or with tags, fused parts or gaps): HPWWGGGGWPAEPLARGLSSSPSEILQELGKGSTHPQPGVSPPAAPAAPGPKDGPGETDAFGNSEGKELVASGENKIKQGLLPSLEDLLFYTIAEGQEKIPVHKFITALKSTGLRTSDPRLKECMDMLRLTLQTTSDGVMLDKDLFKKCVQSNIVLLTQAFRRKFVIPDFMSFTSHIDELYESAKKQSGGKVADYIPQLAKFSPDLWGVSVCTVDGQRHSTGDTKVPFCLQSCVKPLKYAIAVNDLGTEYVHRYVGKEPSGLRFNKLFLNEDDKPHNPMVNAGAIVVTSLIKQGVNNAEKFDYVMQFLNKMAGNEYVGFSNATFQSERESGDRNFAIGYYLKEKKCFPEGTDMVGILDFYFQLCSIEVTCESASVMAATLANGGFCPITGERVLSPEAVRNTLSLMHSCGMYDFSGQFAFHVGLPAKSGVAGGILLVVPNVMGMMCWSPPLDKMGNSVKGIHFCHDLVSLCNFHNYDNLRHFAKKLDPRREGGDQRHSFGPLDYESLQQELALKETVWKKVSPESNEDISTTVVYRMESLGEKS
Conditions: not given
In kind it is biochemical.
One may read the IC50 as the concentration at which inhibition is half-maximal. Turning to `CNC(=O)c1cn(CC(F)CCc2nnc(C(=O)NCc3cc(C(F)(F)F)ccn3)s2)nn1` (racemic) [Example 508, 5-(3-fluoro-4-(4-(methylcarbamoyl)-1H-1,2,3-triazol-1-yl)butyl)-N-((4-(trifluoromethyl)pyridin-2-yl)methyl)-1,3,4-thiadiazole-2-carboxamide], the IC50 lay within 100 to 500 nM.
